The results in this text go back to paper PMC8911992, “In Vitro and Computational Studies of Perezone and Perezone Angelate as Potential Anti-Glioblastoma Multiforme Agents” (Molecules, 2022).

Structures are written as SMILES.

For this assay, the target named is T1, PARP-1 (Homo sapiens, UniProt P09874).
T1 construct: gene PARP1
Briefly: PARP-1 colorimetric assay kit (BPS Bioscience […]). It counts as biochemical.

T1 sequence (P09874 2-1014): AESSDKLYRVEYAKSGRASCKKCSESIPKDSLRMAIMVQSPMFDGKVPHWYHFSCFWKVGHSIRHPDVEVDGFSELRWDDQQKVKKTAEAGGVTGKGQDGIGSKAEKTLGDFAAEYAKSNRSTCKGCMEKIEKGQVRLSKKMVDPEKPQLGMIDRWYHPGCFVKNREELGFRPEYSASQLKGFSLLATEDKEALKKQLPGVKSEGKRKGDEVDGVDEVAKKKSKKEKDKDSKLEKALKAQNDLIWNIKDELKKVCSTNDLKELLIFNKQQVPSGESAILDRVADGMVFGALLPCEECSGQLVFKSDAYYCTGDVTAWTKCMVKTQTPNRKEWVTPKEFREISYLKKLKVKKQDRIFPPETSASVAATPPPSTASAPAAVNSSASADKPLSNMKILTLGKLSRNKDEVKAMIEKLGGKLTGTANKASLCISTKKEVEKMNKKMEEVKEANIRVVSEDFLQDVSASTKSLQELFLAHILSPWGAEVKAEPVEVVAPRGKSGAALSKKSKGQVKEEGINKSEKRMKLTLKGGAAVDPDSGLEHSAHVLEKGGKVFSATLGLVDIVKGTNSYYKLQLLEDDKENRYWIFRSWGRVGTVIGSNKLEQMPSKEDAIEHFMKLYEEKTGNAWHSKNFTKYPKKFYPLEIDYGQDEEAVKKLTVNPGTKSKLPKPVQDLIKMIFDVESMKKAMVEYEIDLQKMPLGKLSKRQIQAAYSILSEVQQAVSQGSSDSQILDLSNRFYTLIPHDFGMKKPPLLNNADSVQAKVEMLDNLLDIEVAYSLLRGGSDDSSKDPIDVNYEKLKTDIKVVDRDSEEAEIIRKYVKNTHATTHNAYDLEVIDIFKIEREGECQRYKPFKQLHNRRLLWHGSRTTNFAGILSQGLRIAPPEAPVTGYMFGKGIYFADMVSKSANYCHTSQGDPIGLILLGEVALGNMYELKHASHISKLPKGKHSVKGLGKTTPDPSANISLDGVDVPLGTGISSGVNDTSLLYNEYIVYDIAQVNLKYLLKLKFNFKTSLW

Consider `C/C=C(/C)C(=O)OC1=C(C(C)CCC=C(C)C)C(=O)C=C(C)C1=O` (stereo not shown) [perezone angelate], for which the IC50 (usually the concentration at which inhibition is half-maximal) turned out to be 5.25 µM.
